Assay results from the NIST ThermoML archive (doi:10.1016/j.jct.2015.09.028).
± gives the expanded uncertainty stated by the source.

Experiments:
[1] = 93 kPa, Liquid; for viscosity: Concentric cylinders viscometry; for mass density: Vibrating tube method
[2] = molar heat capacity at constant pressure; conditions: Liquid, Flow calorimetry

**Q.** What does the source list for c1ccc(Oc2ccccc2)cc1 [diphenyl ether]?
**A.** viscosity ([1]; 303.15 K): 3.33 ± 0.07 mPa·s; mass density ([1]; 303.15 K): 1065.5 ± 1 kg/m3; viscosity ([1]; 308.15 K): 2.96 ± 0.06 mPa·s; mass density ([1]; 308.15 K): 1061.2 ± 1 kg/m3; viscosity ([1]; 313.15 K): 2.65 ± 0.05 mPa·s; mass density ([1]; 313.15 K): 1056.9 ± 1 kg/m3; viscosity ([1]; 323.15 K): 2.17 ± 0.04 mPa·s; mass density ([1]; 323.15 K): 1048.2 ± 1 kg/m3; viscosity ([1]; 333.15 K): 1.82 ± 0.04 mPa·s; mass density ([1]; 333.15 K): 1039.6 ± 1 kg/m3; viscosity ([1]; 343.15 K): 1.54 ± 0.03 mPa·s; mass density ([1]; 343.15 K): 1030.9 ± 1 kg/m3; viscosity ([1]; 353.15 K): 1.33 ± 0.03 mPa·s; mass density ([1]; 353.15 K): 1022.3 ± 1 kg/m3; viscosity ([1]; 363.15 K): 1.16 ± 0.02 mPa·s; mass density ([1]; 363.15 K): 1013.7 ± 1 kg/m3; viscosity ([1]; 373.15 K): 1.03 ± 0.02 mPa·s; mass density ([1]; 373.15 K): 1005.2 ± 1 kg/m3; molar heat capacity at constant pressure ([2]; 313.15 K, 100 kPa): 274.37 ± 5.4 J/K/mol; molar heat capacity at constant pressure ([2]; 313.15 K, 5000 kPa): 273.52 ± 5.4 J/K/mol; molar heat capacity at constant pressure ([2]; 313.15 K, 10000 kPa): 273.18 ± 5.4 J/K/mol; molar heat capacity at constant pressure ([2]; 313.15 K, 15000 kPa): 272.5 ± 5.4 J/K/mol; molar heat capacity at constant pressure ([2]; 313.15 K, 20000 kPa): 272.16 ± 5.4 J/K/mol; molar heat capacity at constant pressure ([2]; 333.15 K, 100 kPa): 286.97 ± 5.8 J/K/mol; molar heat capacity at constant pressure ([2]; 333.15 K, 5000 kPa): 285.95 ± 5.8 J/K/mol; molar heat capacity at constant pressure ([2]; 333.15 K, 10000 kPa): 284.93 ± 5.8 J/K/mol; molar heat capacity at constant pressure ([2]; 333.15 K, 15000 kPa): 284.59 ± 5.8 J/K/mol; molar heat capacity at constant pressure ([2]; 333.15 K, 20000 kPa): 283.39 ± 5.6 J/K/mol; molar heat capacity at constant pressure ([2]; 333.15 K, 25000 kPa): 282.71 ± 5.6 J/K/mol; molar heat capacity at constant pressure ([2]; 353.15 K, 100 kPa): 299.05 ± 6 J/K/mol; molar heat capacity at constant pressure ([2]; 353.15 K, 5000 kPa): 298.03 ± 6 J/K/mol; molar heat capacity at constant pressure ([2]; 353.15 K, 10000 kPa): 296.84 ± 6 J/K/mol; molar heat capacity at constant pressure ([2]; 353.15 K, 15000 kPa): 296.33 ± 6 J/K/mol; molar heat capacity at constant pressure ([2]; 353.15 K, 20000 kPa): 295.48 ± 6 J/K/mol; molar heat capacity at constant pressure ([2]; 353.15 K, 25000 kPa): 294.63 ± 6 J/K/mol
